Laboratory results: ChEMBL document CHEMBL4118183, “Lipophilic methylene blue analogues enhance mitochondrial function and increase frataxin levels in a cellular model of Friedreich's ataxia” (Bioorg Med Chem, 2018)
Active and inactive are the calls of the source. No cut-off for these calls is given here.

What was measured:
[1] = Cytotoxicity against human Friedreich's ataxia lymphocytes assessed as cell viability by measuring live cells at 250 nM after 48 hrs by calceinAM ester/ethidium homodimer-1 staining based flow cytometry (reference value: 89.3%); parameters: species or system Friedreich's ataxia lymphocyte; settings: read-out: Activity
[2] = Induction of inner mitochondrial membrane potential depolarization in human Friedreich's ataxia lymphocytes assessed as JC-1 monomers at 2500 nM after 16 hrs by JC1-staining based flow cytometry (reference value: 17.3%); type: functional, Friedreich's ataxia lymphocyte
[3] = Induction of mitochondrial biogenesis in FRDA patient derived Friedreich's ataxia lymphocytes assessed as increase in COX-1/SDH-A protein levels at 50 nM after 24 to 48 hrs by ELISA relative to control; type: functional, Homo sapiens, Friedreich's ataxia lymphocyte
[4] = Cytotoxicity against human Friedreich's ataxia lymphocytes assessed as cell viability by measuring dead cells at 250 nM after 24 hrs by calceinAM ester/ethidium homodimer-1 staining based flow cytometry (reference value: 11.2%); settings: friedreich's ataxia lymphocyte, 0.25 µM
[5] = Induction of inner mitochondrial membrane potential depolarization in human Friedreich's ataxia lymphocytes assessed as JC-1 monomers at 250 nM after 16 hrs by JC1-staining based flow cytometry (reference value: 17.3%); type: functional, Friedreich's ataxia lymphocyte
[6] = Cytotoxicity against human Friedreich's ataxia lymphocytes assessed as cell viability by measuring dead cells at 250 nM after 48 hrs by calceinAM ester/ethidium homodimer-1 staining based flow cytometry (reference value: 10.6%); settings: friedreich's ataxia lymphocyte, 0.25 µM
[7] = tested on: Friedreich's ataxia lymphocyte; assay: Cytoprotective activity against rotenone-induced cytotoxicity in human Friedreich's ataxia lymphocytes assessed as increase in cell viability at 250 to 2500 nM preincubated for 12 hrs followed by complex 1 inhibitor rotenone addition measured after 16 hrs by calceinAM ester/ethidium homodimer-1 staining based flow cytometry; type: functional
[8] = tested on: Friedreich's ataxia lymphocyte; assay: Increase in total ATP levels in human Friedreich's ataxia lymphocytes at 0.1 to 0.5 uM after 24 hrs by bioluminescence assay; type: functional, cell-based
[9] = Cytotoxicity against human Friedreich's ataxia lymphocytes assessed as cell viability by measuring live cells at 2500 nM after 48 hrs by calceinAM ester/ethidium homodimer-1 staining based flow cytometry (reference value: 89.3%); parameters: species or system Friedreich's ataxia lymphocyte; settings: read-out: Activity
[10] = Cytotoxicity against human Friedreich's ataxia lymphocytes assessed as cell viability by measuring live cells at 250 nM after 24 hrs by calceinAM ester/ethidium homodimer-1 staining based flow cytometry (reference value: 88.2%); parameters: species or system Friedreich's ataxia lymphocyte; settings: read-out: Activity
[11] = Cytotoxicity against human Friedreich's ataxia lymphocytes assessed as cell viability by measuring live cells at 2500 nM after 24 hrs by calceinAM ester/ethidium homodimer-1 staining based flow cytometry (reference value: 88.2%); parameters: species or system Friedreich's ataxia lymphocyte; settings: read-out: Activity
Homo sapiens [12] = species on record: Homo sapiens; assay: (§1) Cytoprotective activity against BSO-treated human Friedreich's ataxia fibroblasts assessed as increase in cell viability incubated overnight followed by BSO addition measured after 48 hrs by calceinAM ester/ethidium homodimer-1 staining based flow cytometry; type: functional
[13] = as §1; type: functional
[14] = Induction of inner mitochondrial membrane potential depolarization in human Friedreich's ataxia lymphocytes assessed as JC-1 aggregates at 2500 nM after 16 hrs by JC1-staining based flow cytometry (reference value: 83%); type: functional, Friedreich's ataxia lymphocyte
[15] = Increase in frataxin protein expression levels in FRDA patient derived Friedreich's ataxia lymphocytes at 50 nM after 24 to 48 hrs by ELISA relative to control; type: functional, Homo sapiens, Friedreich's ataxia lymphocyte
[16] = tested on: Friedreich's ataxia lymphocyte; assay: (§2) Induction of mitochondrial biogenesis in FRDA patient derived Friedreich's ataxia lymphocytes assessed as increase in COX-1/SDH-A protein levels at 250 nM after 24 to 48 hrs by ELISA; type: functional; settings: Homo sapiens
Homo sapiens [17] = species on record: Homo sapiens; assay: Cytoprotective activity against BSO-treated human Friedreich's ataxia fibroblasts assessed as increase in cell viability at 25 to 50 nM incubated overnight followed by BSO addition measured after 48 hrs by calceinAM ester/ethidium homodimer-1 staining based flow cytometry; type: functional
[18] = tested on: Friedreich's ataxia lymphocyte; assay: Restoration of total aconitase activity in FRDA patient derived Friedreich's ataxia lymphocytes at 50 to 250 nM after 5 days by colorimetric assay; type: functional, cell-based; settings: Homo sapiens
Mus musculus = species on record: Mus musculus; assay: Substrate activity at NADH-ubiquinone oxidoreductase in mouse liver mitochondrial membrane fractions assessed as induction of electron flow from complex-1 by measuring NADH oxidation at 5 uM after 5 mins in presence of complex 1 blocker rotenone at 0.1 uM using NADH and coenzyme Q1; type: cell membranes
[19] = Induction of inner mitochondrial membrane potential depolarization in human Friedreich's ataxia lymphocytes assessed as JC-1 aggregates at 250 nM after 16 hrs by JC1-staining based flow cytometry (reference value: 83%); type: functional, Friedreich's ataxia lymphocyte
[20] = tested on: Friedreich's ataxia lymphocyte; assay: Increase in total ATP levels in human Friedreich's ataxia lymphocytes at 2.5 uM after 24 hrs by bioluminescence assay; type: functional, cell-based
[21] = Cytotoxicity against human Friedreich's ataxia lymphocytes assessed as cell viability by measuring dead cells at 2500 nM after 48 hrs by calceinAM ester/ethidium homodimer-1 staining based flow cytometry (reference value: 10.6%); settings: friedreich's ataxia lymphocyte, 2.5 µM
[22] = tested on: Friedreich's ataxia lymphocyte; assay: Inhibition of DEM-induced ROS production in human Friedreich's ataxia lymphocytes incubated for 16 hrs followed by DEM treatment for 80 mins by DCFH-DA dye based flow cytometry; type: functional, cell-based
[23] = Cytotoxicity against human Friedreich's ataxia lymphocytes assessed as cell viability by measuring dead cells at 2500 nM after 24 hrs by calceinAM ester/ethidium homodimer-1 staining based flow cytometry (reference value: 11.2%); settings: friedreich's ataxia lymphocyte, 2.5 µM
[24] = tested on: Friedreich's ataxia lymphocyte; assay: (§3) Increase in frataxin protein expression levels in FRDA patient derived Friedreich's ataxia lymphocytes at 250 nM after 24 to 48 hrs by ELISA; type: functional; settings: Homo sapiens
[25] = tested on: Friedreich's ataxia lymphocyte; assay: Increase in total ATP levels in human Friedreich's ataxia lymphocytes at 100 nM after 24 hrs by bioluminescence assay; type: functional, cell-based
[26] = tested on: Friedreich's ataxia lymphocyte; assay: Increase in total ATP levels in human Friedreich's ataxia lymphocytes at 0.5 to 2.5 uM after 24 hrs by bioluminescence assay; type: functional, cell-based
[27] = as §2; type: functional, Homo sapiens, Friedreich's ataxia lymphocyte
[28] = as §3; type: functional, Homo sapiens, Friedreich's ataxia lymphocyte
[29] = tested on: Friedreich's ataxia lymphocyte; assay: Inhibition of DEM-induced ROS production in human Friedreich's ataxia lymphocytes at 250 to 2500 nM incubated for 16 hrs followed by DEM treatment for 80 mins by DCFH-DA dye based flow cytometry; type: functional, cell-based
[30] = tested on: Friedreich's ataxia lymphocyte; assay: Increase in total ATP levels in human Friedreich's ataxia lymphocytes at 0.1 uM after 24 hrs by bioluminescence assay; type: functional, cell-based

| Structure (SMILES) | viability at 48 h, 0.25 µM [1] [%] | Activity [2] [%] | Activity [3] | Activity [4] [%] | Activity [5] [%] | Activity [6] [%] | Activity [7] | viability at 48 h, 2.5 µM [9] [%] | viability at 24 h, 0.25 µM [10] [%] | viability at 24 h, 2.5 µM [11] [%] | Activity (Homo sapiens [12]) | EC50 [13] [nM] | Activity [14] [%] | Activity [16] | Activity [19] [%] | Activity [21] [%] | inhibition [22] | Activity [23] [%] | Activity [24] | Activity [26] | also measured |
| --- | --- | --- | --- | --- | --- | --- | --- | --- | --- | --- | --- | --- | --- | --- | --- | --- | --- | --- | --- | --- | --- |
| CCCCCCCCCCCCCCCCc1cc2nc3ccc(N(C)C)cc3sc-2cc1=[N+](C)C.[I-] | 89.4 | 23.3 | >=15% | 8.4 | 18.2 | 10.5 | Active | 81.2 | 91.4 | 87 | Dose-dependent effect | 29 | 77 | inactive | 82.1 | 18.6 | Dose-dependent effect | 13 | inactive | – | Activity [8]: Active; Activity [15]: >=10%; Activity (Homo sapiens [17]): Active; Activity [18]: Active; Activity (Mus musculus): Active; Activity [20]: inactive |
| CCCCCCCCCCCc1cc2nc3ccc(N(C)C)cc3sc-2cc1=[N+](C)C.[I-] | 85.7 | 46.9 | >=15% | 10.2 | 17.4 | 14.2 | Active | 16.2 | 89.5 | 45.1 | Dose-dependent effect | 35 | 54.8 | inactive | 82.9 | 83.5 | Dose-dependent effect | 54.7 | inactive | inactive | Activity [25]: inactive; Activity [15]: >=10%; Activity (Homo sapiens [17]): Active |
| CCCCCCCCCCCCCc1cc2nc3ccc(N(C)C)cc3sc-2cc1=[N+](C)C.[I-] | 86.7 | 72.2 | – | 10.3 | 17.6 | 13.1 | Active | 21.6 | 89.3 | 41.3 | Dose-dependent effect | 37 | 30.6 | – | 82.8 | 78 | Dose-dependent effect | 58.5 | – | inactive | Activity [25]: inactive; Activity [27]: >=20%; Activity (Homo sapiens [17]): Active; Activity [28]: >=15% |
| CN(C)c1ccc2nc3ccc(=[N+](C)C)cc-3sc2c1 [METHYLENE BLUE ANHYDROUS] | 77.5 | – | – | – | – | – | Active | 15.4 | 85.4 | 60.2 | Dose-dependent effect | – | – | – | – | – | Dose-dependent effect | – | – | inactive | Activity [25]: inactive; Activity [18]: Active; Activity (Mus musculus): Active |
| CCCCCc1cc2nc3ccc(N(C)C)cc3sc-2cc1=[N+](C)C.[I-] | 78.7 | 70.9 | – | 17.2 | 16.9 | 21 | Active | 4.4 | 82.6 | 37.5 | Dose-dependent effect | 66 | 31.4 | – | 83.5 | 95.2 | – | 62.4 | – | inactive | inhibition [29]: Active; Activity [25]: inactive; Activity [27]: >=20%; Activity (Mus musculus): Active; Activity [28]: >=15% |
| CCCCCCCCCCCCCCCCCc1cc2nc3ccc(N(C)C)cc3sc-2cc1=[N+](C)C.[I-] | 87.7 | 23.4 | – | 8.8 | 15.2 | 12.2 | Active | 86.2 | 91 | 89.2 | Dose-dependent effect | 48 | 77.1 | inactive | 85.3 | 13.5 | – | 10.5 | inactive | – | inhibition [29]: Active; Activity [8]: Active; Activity [20]: inactive |
| CN(C)c1ccc2nc3ccc(N(C)C)cc3[s+]c2c1.[Cl-] [METHYLENE BLUE ANHYDROUS] | – | 51.2 | >=15% | 14.3 | 20.2 | 22.5 | – | – | – | – | – | 75 | 49 | – | 80.3 | 84.3 | – | 39.6 | – | – | Activity [15]: >=10%; Activity [27]: >=20%; Activity [28]: >=15% |
| CCCCCCCCCCCCCCCCCc1cc2nc3ccc(N4CCOCC4)cc3sc-2cc1=[N+]1CCOCC1.[I-] | 87.4 | 20.7 | – | 8.6 | 16 | 12.4 | Active | 79 | 91.3 | 87.9 | Dose-dependent effect | 52 | 79.8 | inactive | 84.2 | 20.8 | – | 12 | inactive | – | inhibition [29]: Active; Activity [8]: Active; Activity [20]: inactive |
| CCCCCCCCCCCCCCCc1cc2nc3ccc(N(C)C)cc3sc-2cc1=[N+](C)C.[I-] | 85.4 | 28.4 | >=15% | 10.3 | 14.2 | 14.5 | Active | 68.7 | 89.4 | 78.2 | Dose-dependent effect | 31 | 73 | inactive | 86.2 | 31.2 | Dose-dependent effect | 21.4 | inactive | inactive | Activity [15]: >=10%; Activity (Homo sapiens [17]): Active; Activity [30]: Active |
